This is an account of results in US20260151403A1, “NEK7 DEGRADERS AND METHODS OF USE THEREOF” (Captor Therapeutics S.A., priority 2022, published 2026).

A value given as a limit tells only on which side of the number the result lay.

The target in assay [1] is T1, [NEK7]-[compound of formula (I)]-[CRBN/DDB1] complex (Homo sapiens, UniProt Q8TDX7+Q96SW2). Description: AlphaLISA dose response ternary complex formation assay. It is filed as binding. Conditions: 1 μM compound, normalized to maximum signal of Compound 2 (positive control) and DMSO background; for activation at 1 µM: read-out: Normalized AlphaLISA ternary complex average signal at 1 μM molecule. As for the experimental part: The effect of the molecular glue compounds of the invention on the formation of a ternary complex composed of [NEK7]-[compound of formula (I)]-[CRBN/DDB1] was investigated with two methods: AlphaLISA dose response assay or HTRF ternary complex assay.
Two types of protein solution were prepared: • 200 nM biotinylated NEK7, 40 μg/ml AlphaScreen Streptavidin-coated Donor Beads in HBS (10 mM HEPES, 150 mM NaCL, pH 7.4) buffer with 0.1% Tween-20 and 1 mM DTT, • 200 nM 6×His-CRBN/Strep-DDB1, 40 μg/ml AlphaLISA Anti-6×His Acceptor beads in HBS buffer with 0.1% Tween-20 and 1 mM DTT.
The prepared solutions were incubated at room temperature for 30 min and then the solution containing the donor beads was mixed with the solution containing the acceptor beads.
The tested compounds were dispensed onto a white 384-well AlphaPlate 384 SW. DMSO was backfilled to all wells, resulting in a final DMSO content of 2%. Wells containing only DMSO served as background. Next, 10 μl of solution with donor and acceptor beads was added to the wells.
The plate was sealed with transparent film and shaken using a VibroTurbulator for 60 sec at room temperature, level 3. The plate was then spun down shortly (10 s, 1000 rcf, room temperature) and incubated at 25° C. for 30 min.
The read-out was performed with PerkinElmer Enspire Multimode Plate Reader (method for AlphaLISA 384-well low volume, Filterset: λexc=680 nm, λem=615 nm).
The results were analyzed as follows: • 1) an average of luminescence for background signal was calculated and used as a negative control; • 2) average of the maximum measured luminescence for Compound 2 was calculated and used as an internal positive control; • 3) raw luminescence values were normalized against positive and negative controls; • 4) Normalized responses to Compound 2 were determined.
(In general: Alpha assays give light when donor and acceptor beads are brought close together.)

In a further assay the target is NEK7-HiBiT protein (Homo sapiens, UniProt Q8TDX7). Description: NEK7-HiBiT degradation assay (Nano-Glo HiBiT Lytic Assay) in HEK293 NEK7-HiBiT cells. The format is cell-based. Conditions: 24 h, conc. 0.1, 1 and 10 μM tested, concentration of the table values not stated, mean of 3 technical replicates. As for the experimental part: HEK293 NEK7-HiBiT cells were generated using CRISPR-Cas9 system. HEK293 cells were transformed with pSpCas9-BB-2A-Puro v2.0 plasmid carrying gRNA targeting the N-terminus of NEK7 and ssODN template containing the HiBiT tag sequence with flanking homology sequences. Neon Transfection System (Thermo Fisher Scientific) was used for electroporation. HEK293 NEK7-HiBiT cells were cultured with DMEM Glutamax (Gibco) supplemented with 10% heat inactivated FBS (Gibco). After transfection the culture medium was changed to DMEM Glutamax with 10% heat-inactivated FBS and 1% Penicillin-Streptomycin (Biowest) supplemented with Puromycin (2 μg/ml; Invivogen) for clonal selection. In order to isolate single cell clones for further validation and analysis, limiting dilution cloning in 96-well plates was performed. When the single clones reached confluency, HiBiT Lytic Assay (Promega) was performed in order to identify HiBiT positive clones. The clone selected for further studies was verified and validated using genotyping and HiBiT Blotting (Promega).
Selected clone of HEK293 NEK7-HiBiT cells was maintained in the DMEM-Glutamax medium supplemented with 10% of heat-inactivated FBS (Gibco) and 1% of Penicillin-Streptomycin Solution 100x (Biowest) at 37° C., 5% CO2 and subcultured every 2-3 days.
For Nano-Glo HiBiT Lytic Assay HEK293 NEK7-HiBiT cells were seeded at the density 2×10^3 cells in triplicates in the 40 μL of growth medium per single well on 384 well plate (Greiner Bio-One). Compounds or DMSO were added to treatment plates using Echo555 Liquid Handler and incubated at 37° C., 5% CO2 for 24 hours. After incubation 40 μL of Nano-Glo HiBiT Lytic Reagent (prepared according to the manufacturer protocol) were added to 40 μL of the cell culture medium present in each well. The plate content was briefly mixed (460 rpm) on an orbital shaker to ensure cell lysis. The plate was left at RT protected from light for another 10 min to stabilize the luminescent signal. The luminescence signal was measured using CLARIOstar Multimode Plate Reader. Focus and gain were adjusted to DMSO treated cells. The results were calculated as the NEK7-HiBiT % relative to the DMSO control of 3 technical replicates relative to the DMSO control.
HEK293 NEK7-HiBiT cells were treated with the compounds (conc. 0.1, 1 and 10 μM) or DMSO for 24 h. After incubation with compounds NEK7-HiBiT degradation was measured as a luminescence signal using CLARIOstar Multimode Plate reader.
Additionally, compounds reducing NEK7-HiBiT protein level by >=50% at 0.1 μM, were also identified.
Background: With HiBiT, luminescence reflects the tagged protein that the partner subunit can reach.

In assay [2] the target is T1, [NEK7]-[compound of formula (I)]-[CRBN/DDB1] complex. Description: HTRF ternary complex assay. The format is binding. The conditions noted are these: dose-response, 180 min at 25° C.; for EC50: read-out: HTRF ternary complex Average pEC50 by molecule (converted). As for the experimental part: The effect of the molecular glue compounds of the invention on the formation of a ternary complex composed of [NEK7]-[compound of formula (I)]-[CRBN/DDB1] was investigated.
Mix solution of proteins and reagents was prepared: • 24 nM NEK7, 52.8 nM 6×His-CRBN/Strep-DDB1, 3 nM of Streptavidin-Eu cryptate […] and 6.67 nM of Anti-6×his-d2 […] was prepared in PPI Europium detection buffer (Cisbio) with 1 mM DTT.
The tested compounds in dose-response were dispensed onto a white 384-well low volume plate (Greiner, 784075). DMSO was backfilled to all wells, resulting in a final DMSO content of 0.5%. Wells containing only DMSO served as background.
The plate was sealed with transparent film and shaken using a VibroTurbulator for 60 sec at level 3.
The plate was then spun down shortly (10 s, 1000 rcf) and incubated at 25° C. for 180 min.
The read-out was performed with plate reader (Pherastar, BMG Labtech) in time resolved fluorescence mode. Filterset: TR 337 665 620.
The results were analyzed as follows: • 1) an average of fluorescence for background signal was calculated and used as a negative control; • 2) raw fluorescence values for tested compounds were normalized against negative controls; • 3) saturation curve was fitted to specific binding with Hill slope model; • 4) EC50 and pEC50 values were determined.
On the technique in general: TR-FRET usually uses a lanthanide donor and a delayed reading to cut background.

Sequence of NEK7-HiBiT protein (Q8TDX7 whole entry): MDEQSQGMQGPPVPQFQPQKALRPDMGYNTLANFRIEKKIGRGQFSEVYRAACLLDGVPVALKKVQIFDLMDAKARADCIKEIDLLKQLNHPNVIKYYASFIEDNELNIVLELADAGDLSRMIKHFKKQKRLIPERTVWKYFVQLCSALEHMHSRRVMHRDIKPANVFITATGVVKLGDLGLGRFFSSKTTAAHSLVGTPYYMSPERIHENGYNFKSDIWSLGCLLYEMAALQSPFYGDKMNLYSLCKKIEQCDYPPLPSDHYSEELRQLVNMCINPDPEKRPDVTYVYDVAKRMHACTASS
Sequence of NEK7-HiBiT protein (Q96SW2 whole entry, further chain): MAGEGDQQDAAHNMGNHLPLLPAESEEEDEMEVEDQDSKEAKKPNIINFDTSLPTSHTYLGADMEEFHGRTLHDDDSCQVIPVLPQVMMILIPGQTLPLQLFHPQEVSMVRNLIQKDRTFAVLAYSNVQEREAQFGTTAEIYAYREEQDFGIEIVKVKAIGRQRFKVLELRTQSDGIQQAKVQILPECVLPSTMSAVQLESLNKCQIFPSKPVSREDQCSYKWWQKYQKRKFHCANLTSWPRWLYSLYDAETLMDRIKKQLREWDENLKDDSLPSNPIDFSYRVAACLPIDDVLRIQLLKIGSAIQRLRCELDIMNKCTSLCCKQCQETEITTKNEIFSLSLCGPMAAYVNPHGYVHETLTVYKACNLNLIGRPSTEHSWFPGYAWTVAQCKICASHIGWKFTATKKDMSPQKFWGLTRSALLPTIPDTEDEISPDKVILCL
Sequence of NEK7-HiBiT protein (Q16531 whole entry partner): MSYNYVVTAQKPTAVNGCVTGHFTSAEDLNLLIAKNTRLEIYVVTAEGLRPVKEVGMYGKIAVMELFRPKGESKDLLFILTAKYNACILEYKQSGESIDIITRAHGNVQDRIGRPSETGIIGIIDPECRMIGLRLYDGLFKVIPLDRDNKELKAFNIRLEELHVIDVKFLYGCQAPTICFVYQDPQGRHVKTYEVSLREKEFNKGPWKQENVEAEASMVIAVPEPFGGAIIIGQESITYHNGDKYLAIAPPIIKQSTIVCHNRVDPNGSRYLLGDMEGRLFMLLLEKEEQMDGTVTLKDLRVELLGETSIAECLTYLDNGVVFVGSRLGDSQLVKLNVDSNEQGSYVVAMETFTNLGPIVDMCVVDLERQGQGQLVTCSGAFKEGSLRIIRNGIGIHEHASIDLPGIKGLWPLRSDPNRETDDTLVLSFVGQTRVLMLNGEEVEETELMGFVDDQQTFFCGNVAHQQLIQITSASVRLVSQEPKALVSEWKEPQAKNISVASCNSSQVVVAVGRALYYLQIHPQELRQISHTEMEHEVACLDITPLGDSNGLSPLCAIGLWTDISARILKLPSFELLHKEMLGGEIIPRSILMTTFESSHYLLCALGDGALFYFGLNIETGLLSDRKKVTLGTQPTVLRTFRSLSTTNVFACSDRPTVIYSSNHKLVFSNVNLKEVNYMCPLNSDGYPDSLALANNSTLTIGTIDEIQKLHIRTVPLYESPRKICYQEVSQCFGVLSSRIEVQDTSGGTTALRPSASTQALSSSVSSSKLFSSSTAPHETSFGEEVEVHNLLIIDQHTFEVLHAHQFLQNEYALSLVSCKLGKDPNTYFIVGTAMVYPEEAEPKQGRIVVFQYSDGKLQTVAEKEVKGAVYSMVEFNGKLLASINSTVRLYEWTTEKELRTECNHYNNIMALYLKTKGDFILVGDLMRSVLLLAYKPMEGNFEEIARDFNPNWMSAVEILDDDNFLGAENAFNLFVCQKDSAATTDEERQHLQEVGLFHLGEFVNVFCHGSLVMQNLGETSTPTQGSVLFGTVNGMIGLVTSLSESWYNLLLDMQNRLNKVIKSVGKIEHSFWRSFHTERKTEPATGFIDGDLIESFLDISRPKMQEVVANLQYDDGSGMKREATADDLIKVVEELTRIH
T1 sequence (Q8TDX7 whole entry): as the sequence (Q8TDX7 whole entry) above
T1 sequence (Q96SW2 whole entry): as the sequence (Q96SW2 whole entry, further chain) above
T1 sequence (Q16531 whole entry partner): as the sequence (Q16531 whole entry partner) above

Regarding `CC(=O)NC1CCC(c2ccc3c(c2)CN(C2CCC(=O)NC2=O)C3=O)NC1` (single isomer, unassigned) [33 Isomer 2, N-(6-(2-(2,6-dioxopiperidin-3-yl)-1-oxoisoindolin-5-yl)piperidin-3-yl)acetamide], in assay [1], the “Normalized AlphaLISA ternary complex average signal at 1 μM molecule” value was “B (Normalized activity > 20% and <80%)”. For the same compound, the “Levels of NEK7-HiBiT Protein (as a % of DMSO control)” value (“Levels … (as a % of DMSO control)” for short) on NEK7-HiBiT protein was “B (Levels of NEK7-HiBiT Protein > 25% and ≤50%)”. The “HTRF ternary complex Average pEC50 by molecule” value in assay [2] is “++++ (7.0 > pEC50 > 6.5)”.

Take `O=C1CCC(N2Cc3cc(C4CCC(Cc5ccccc5)CN4)ccc3C2=O)C(=O)N1` (single isomer, unassigned) [35 Isomer 1, 3-(5-(5-benzylpiperidin-2-yl)-1-oxoisoindolin-2-yl)piperidine-2,6-dione]: in assay [1], the activation at 1 µM is over 80%. For the same compound, the “Levels … (as a % of DMSO control)” value at NEK7-HiBiT protein is “B (Levels of NEK7-HiBiT Protein > 25% and ≤50%)”. In addition, the EC50 in assay [2] is 100 to 316 nM.

As for `CC(C)C1CCC(c2ccc3c(c2)CN(C2CCC(=O)NC2=O)C3=O)NC1` (single isomer, unassigned) [55 Isomer 1, 3-(5-(5-isopropylpiperidin-2-yl)-1-oxoisoindolin-2-yl)piperidine-2,6-dione], the “Normalized AlphaLISA ternary complex average signal at 1 μM molecule” value in assay [1] was “B (Normalized activity > 20% and <80%)”. Besides, the “Levels … (as a % of DMSO control)” value at NEK7-HiBiT protein was “C (Levels of NEK7-HiBiT Protein > 50% and <75%)”. In assay [2], the EC50 is 316 to 1000 nM.

Regarding `CC(C)C1CCC(c2ccc3c(c2)CN(C2CCC(=O)NC2=O)C3=O)NC1` (single isomer, unassigned) [55 Isomer 2, 3-(5-(5-isopropylpiperidin-2-yl)-1-oxoisoindolin-2-yl)piperidine-2,6-dione], in assay [1], the “Normalized AlphaLISA ternary complex average signal at 1 μM molecule” value was “A (Normalized activity > 80%)”. In addition, the “Levels … (as a % of DMSO control)” value on NEK7-HiBiT protein is “B (Levels of NEK7-HiBiT Protein > 25% and ≤50%)”. Moreover, the “HTRF ternary complex Average pEC50 by molecule” value in assay [2] is recorded as “+++ (6.5 > pEC50 > 6.0)”.

As to `CCCCC1CCC(c2ccc3c(c2)CN(C2CCC(=O)NC2=O)C3=O)OC1` (single isomer, unassigned) [70 Isomer 1, 3-(5-(5-butyltetrahydro-2H-pyran-2-yl)-1-oxoisoindolin-2-yl)piperidine-2,6-dione], the “Normalized AlphaLISA ternary complex average signal at 1 μM molecule” value in assay [1] is listed as “D (Normalized activity < 10%)”. In addition, the “Levels … (as a % of DMSO control)” value at NEK7-HiBiT protein is reported as “D (Levels of NEK7-HiBiT Protein ≥ 75%)”. The EC50 in assay [2] is over 3160 nM.

As for `CCCCC1CCC(c2ccc3c(c2)CN(C2CCC(=O)NC2=O)C3=O)OC1` (single isomer, unassigned) [70 Isomer 2, 3-(5-(5-butyltetrahydro-2H-pyran-2-yl)-1-oxoisoindolin-2-yl)piperidine-2,6-dione], in assay [1], the “Normalized AlphaLISA ternary complex average signal at 1 μM molecule” value is “A (Normalized activity > 80%)”. The “Levels … (as a % of DMSO control)” value on NEK7-HiBiT protein was “B (Levels of NEK7-HiBiT Protein > 25% and ≤50%)”. Further, the EC50 in assay [2] was 1000 to 3160 nM.

In the case of `O=C1CCC(N2Cc3cc(C4CCC(c5ccccc5)CO4)ccc3C2=O)C(=O)N1` (single isomer, unassigned) [74 Isomer 1, 3-(1-oxo-5-(5-phenyltetrahydro-2H-pyran-2-yl)isoindolin-2-yl)piperidine-2,6-dione], the “Normalized AlphaLISA ternary complex average signal at 1 μM molecule” value in assay [1] is given as “D (Normalized activity < 10%)”. Besides, at NEK7-HiBiT protein, the “Levels … (as a % of DMSO control)” value was “D (Levels of NEK7-HiBiT Protein ≥ 75%)”. In addition, the EC50 in assay [2] is over 3160 nM.

For the compound `O=C1CCC(N2Cc3cc(C4CCC(c5ccccc5)CO4)ccc3C2=O)C(=O)N1` (single isomer, unassigned) [74 Isomer 2, 3-(1-oxo-5-(5-phenyltetrahydro-2H-pyran-2-yl)isoindolin-2-yl)piperidine-2,6-dione], the “Normalized AlphaLISA ternary complex average signal at 1 μM molecule” value in assay [1] is reported as “A (Normalized activity > 80%)”. The “Levels … (as a % of DMSO control)” value at NEK7-HiBiT protein is “A (Levels of NEK7-HiBiT Protein ≤ 25%)”. In addition, the EC50 in assay [2] was 100 to 316 nM.

As for `O=C1CCC(N2Cc3cc(-c4ccc5ccccc5n4)ccc3C2=O)C(=O)N1` (stereo not drawn) [5(2), 3-(1-oxo-5-(quinolin-2-yl)isoindolin-2-yl)piperidine-2,6-dione], in assay [1], the activation at 1 µM is over 80%. Also, the “Levels … (as a % of DMSO control)” value at NEK7-HiBiT protein was “B (Levels of NEK7-HiBiT Protein > 25% and ≤50%)”. Further, the EC50 in assay [2] is 100 to 316 nM.

For `O=C1CCC(N2Cc3cc(-c4cc5ccccc5cn4)ccc3C2=O)C(=O)N1` (stereo not drawn) [6(2), 3-(5-(isoquinolin-3-yl)-1-oxoisoindolin-2-yl)piperidine-2,6-dione], in assay [1], the activation at 1 µM is over 80%. For the same compound, the “Levels … (as a % of DMSO control)” value on NEK7-HiBiT protein is “B (Levels of NEK7-HiBiT Protein > 25% and ≤50%)”. Moreover, the EC50 in assay [2] is 100 to 316 nM.

For `CC(=O)Nc1ccc(-c2ccc3c(c2)CN(C2CCC(=O)NC2=O)C3=O)nc1` (stereo not drawn) [7(2), N-(6-(2-(2,6-dioxopiperidin-3-yl)-1-oxoisoindolin-5-yl)pyridin-3-yl)acetamide], in assay [1], the activation at 1 µM is over 80%. The “Levels … (as a % of DMSO control)” value at NEK7-HiBiT protein was “B (Levels of NEK7-HiBiT Protein > 25% and ≤50%)”. Moreover, the EC50 in assay [2] was 100 to 316 nM.

For `O=C1CCC(N2Cc3cc(-c4ccc(C(F)(F)F)cn4)ccc3C2=O)C(=O)N1` (stereo not drawn) [16(2), 3-(1-oxo-5-(5-(trifluoromethyl)pyridin-2-yl)isoindolin-2-yl)piperidine-2,6-dione], the activation at 1 µM in assay [1] is over 80%. Also, the “Levels … (as a % of DMSO control)” value on NEK7-HiBiT protein was “A (Levels of NEK7-HiBiT Protein ≤ 25%)”. The EC50 in assay [2] is 316 to 1000 nM.

With `O=C1CCC(N2C(=O)c3ccc(-c4ccccn4)c4cccc2c34)C(=O)N1` (stereo not drawn) [23(2), 3-(2-oxo-5-(pyridin-2-yl)benzo[cd]indol-1 (2H)-yl)piperidine-2,6-dione], in assay [1], the activation at 1 µM was over 80%. Moreover, at NEK7-HiBiT protein, the “Levels … (as a % of DMSO control)” value was “B (Levels of NEK7-HiBiT Protein > 25% and ≤50%)”. Further, the EC50 in assay [2] is under 100 nM.
